From article PMC7822874, “Chemoprotective antimalarials identified through quantitative high-throughput screening of Plasmodium blood and liver stage parasites” (Scientific Reports, 2021)

Columns and labels:
[1] = test system: Plasmodium falciparum Dd2 asexual blood stage parasites; experiment: microbe, parasite or virus in culture; design: species or system Plasmodium falciparum Dd2 in human erythrocytes; single determination (one 11-point concentration-response curve); details: Plasmodium falciparum, DD2, Erythrocyte, 72 h; read-out: AC50
in vitro = details: human
[2] = HepG2-A16-CD81EGFP cells, uninfected

Row | Structure (SMILES) | viability at 48 h, 1 µM (in vitro; [2]) [%] | viability at 48 h, 3 µM (in vitro; [2]) [%] | other results
1 | N#Cc1cc(C(=O)c2cc(Br)ccc2O)cn(C2CCCCC2)c1=O [MLS000565115-01] | 90 | 84 | AC50 [1]: 668 nM
2 | CCOC(=O)c1nc2cc3n(c(CC(C)C)c-2c1C)CC(C)=C3C [MLS000594428-01] | 108 |  | AC50 [1]: 7500 nM; viability at 48 h (in vitro; [2]): 108%
3 | Cc1ccccc1OCC(O)CN(Cc1ccccc1O)C1CCCCC1 (centres unmarked) [MLS001002964-01] | 85 | 90 | AC50 [1]: 119 nM
4 | O=C(Nc1ccc(C2=NCCN2)cc1)c1ccc(C(=O)Nc2ccc(C3=NCCN3)cc2)c([N+](=O)[O-])c1 [MLS000737369-01] | 94 | 85 | AC50 [1]: 237 nM
5 | Cc1onc(-c2ccc(Cl)cc2)c1-c1ccnn1S(=O)(=O)c1ccc(Cl)cc1 [MLS001111121-01] |  |  | AC50 [1]: 1880 nM; viability at 66 h (in vitro; [2]): 100%
6 | CN1C2CCC1/C(=C\c1ccccc1)C(=O)/C2=C\c1ccccc1 [MLS000551165-01] |  |  | AC50 [1]: 2110 nM; viability at 66 h (in vitro): 95.8%
7 | CCC(=O)N(C1=C(NC(C)C)C(=O)c2ccccc2C1=O)C(C)C [MLS000696323-01] | 106 | 105 | AC50 [1]: 2370 nM
8 | COc1cc(O)c(C(CCN2CCCC(C)C2)c2cc(OC)c(OC)c(OC)c2)c(OC)c1 (centres unmarked) [MLS000879467-01] | 90 | 88 | AC50 [1]: 1880 nM
9 | CCCCOc1ccc(C(=O)N/C(=C\c2cccc([N+](=O)[O-])c2)C(=O)OC(C)C)cc1 [MLS000574332-01] | 101 | 100 | AC50 [1]: 2110 nM
10 | CCCCNc1nc2sc3c(c2c(=O)n1-c1cccc(Cl)c1)CCN(C)C3 [MLS000762857-01] | 106 |  | AC50 [1]: 9440 nM; viability at 48 h (in vitro; [2]): 106%
11 | CCn1c2c(c(=N)c3c1CCC3)CCCC2 [MLS001047512-01] |  |  | AC50 [1]: 13300 nM; viability at 66 h (in vitro; [2]): 100%
12 | CCOC(=O)CC(=O)CSc1nc2ccccc2c(=O)n1-c1ccc(C(=O)N2CCOCC2)cc1 [MLS000095558-01] | 87 | 87 | AC50 [1]: 13300 nM
13 | COc1ccc(CCn2c(=N)c(C(=O)NC3CCCC3)cc3c(=O)n4cccc(C)c4nc32)cc1 [MLS001147827-01] |  |  | AC50 [1]: 750 nM; viability at 66 h (in vitro; [2]): 94.5%
14 | Cc1ccc2c(c1)-c1c(ssc1=S)C(C)(C)N2C(=O)c1ccco1 [MLS000525939-01] | 100 | 100 | 
15 | CN(C(=O)c1ccc(NC(=O)Cc2cccc(NC(=O)C3CCCN(C(=O)CCc4ccccc4)C3)c2)cc1)C1CCCC1 (centres unmarked) [MLS002402746-01] | 104 |  | viability at 48 h (in vitro; [2]): 104%
16 | COc1ccc(C2CC(c3cccs3)=NN2C(=O)c2ccco2)cc1OC (centres unmarked) [MLS000769739-01] |  |  | viability at 66 h (in vitro; [2]): 101%
17 | Cc1ccc(CN(C)C(=O)c2cc(COc3ccc(F)cc3Cl)on2)o1 [MLS000734222-01] |  |  | viability at 66 h (in vitro; [2]): 101%
18 | COC(CSc1nc(N)c2c3c(sc2n1)CN(C)CC3)OC [MLS001215130-01] |  |  | viability at 66 h (in vitro; [2]): 97.5%
19 | Cc1cccc(CSc2nn3c(=O)c(C)nnc3s2)c1 [MLS000724933-01] | 115 | 100 | 

Row | Structure (SMILES) | viability at 48 h, 1 µM (in vitro; [2]) [%] | viability at 48 h, 3 µM (in vitro; [2]) [%] | other results
20 | Cc1ccc(C(=O)c2oc3ccccc3c2NC(=O)c2cc(-c3cc(C)ccc3O)[nH]n2)cc1 [MLS000331963-01] | 103 | 102 | 
21 | CCOC(=O)Cn1c2c(c(=N)c3c1CCC3)CCCC2 [MLS000702567-01] |  |  | viability at 66 h (in vitro; [2]): 106%
22 | Cc1ccc2[nH]c(C(=O)Nc3ccc(F)cc3)cc2c1 [MLS001183414-01] |  |  | viability at 66 h (in vitro; [2]): 99.7%
23 | CCOc1cc(CN2CCCC(N3CCN(c4ccc(F)cc4)CC3)C2)ccc1OC (centres unmarked) [MLS001162894-01] | 114 | 103 | 
24 | Cc1cccc(NC(=O)c2cc(S(=O)(=O)N(C)c3ccc(F)cc3)ccc2Cl)n1 [MLS001160863-01] | 97 | 92 | 
25 | Clc1cccc(CN2CCc3c([nH]c4ccccc34)C2)c1Cl [MLS001164092-01] | 104 |  | viability at 48 h (in vitro; [2]): 104%
26 | COc1ccc(C(=O)C[n+]2ccc(N(C)C)cc2)cc1 [MLS001044390-01] |  |  | viability at 66 h (in vitro; [2]): 100%
27 | CCOC(=O)Cn1c2c(c(=N)c3c1CCC3)CCC2 [MLS000080129-01] |  |  | viability at 66 h (in vitro; [2]): 99.5%
28 | COc1cccc(N2C(N)=NC(N)=NC2(C)C)c1 [MLS000047853-01] | 103 |  | viability at 48 h (in vitro; [2]): 103%
29 | CCCCN(C)[S+](=O)([O-])c1ccc(C(=O)Nc2ccc(-c3nc4ccc(C)cc4s3)cc2)cc1 [NCGC00134689-01] |  |  | viability at 66 h (in vitro; [2]): 103%
30 | CCc1cc(C(=O)c2ccccc2)c(N)s1 [MLS001211275-01] |  |  | viability at 66 h (in vitro; [2]): 107%
31 | CCOc1ccc2nc(C)cc(Nc3cccc([N+](=O)[O-])c3)c2c1 [MLS000663974-01] |  |  | viability at 66 h (in vitro; [2]): 102%
32 | Cc1ccc2nc3c(c(Nc4ccc(O)cc4)c2c1)CCC3 [MLS001196969-01] | 99 | 99 | 
33 | CC(C)(C)NC(=O)Cn1ccc(=N)c2ccccc21 [MLS000068809-01] | 99 | 97 | 
34 | CCSc1nnc(SCC(=O)c2c(N)n(C)c(=O)n(C)c2=O)s1 [MLS002169255-01] | 93 | 88 | 
35 | COc1ccc2cc3cc(C(=O)NCCC(C)C)oc3nc2c1 [MLS001199461-01] | 101 | 101 | 
36 | c1cc(Nc2ncnc3sc4c(c23)CCC4)ccn1 [MLS000681348-01] | 103 |  | viability at 48 h (in vitro; [2]): 103%
37 | C=CCNc1nc(N(c2ccccc2)c2ccccc2)nc(-n2ccnc2)n1 [MLS000045718-01] |  |  | viability at 66 h (in vitro; [2]): 107%
38 | Cc1ccc(-n2nc3c(Cl)nnc(C)c3c2C)cc1 [MLS000698458-01] | 105 | 104 | 

Row | Structure (SMILES) | viability at 48 h, 1 µM (in vitro; [2]) [%] | viability at 48 h, 3 µM (in vitro; [2]) [%] | other results
39 | C=C(C)CSc1nc2sc3c(c2c(=O)n1-c1ccc(OC)cc1)CCN(C)C3 [MLS001173660-01] | 106 | 105 | 
40 | Cc1ccccc1Nc1nnc(SCc2cc(=O)n3ccsc3n2)s1 [MLS000565690-01] | 107 | 101 | 
41 | CN(C)S(=O)(=O)Oc1ccsc1C(=O)Nc1cccc(Cl)c1 [MLS000327935-01] |  |  | viability (in vitro): 102%
42 | NS(=O)(=O)c1cccc(NC(=O)CSc2nn(-c3ccccc3)c(=S)s2)c1 [MLS000339501-01] | 105 | 100 | 
43 | O=S(=O)(c1ccc(F)cc1)N1CCN(/C(S)=N/Cc2ccco2)CC1 [MLS000409296-01] |  |  | viability at 66 h (in vitro; [2]): 103%
44 | CCCN(CCC)C(=O)Cn1ccc(=N)c2ccccc21 [MLS000047676-01] | 95 | 87 | 
45 | CCCC(=O)Nc1sc2c(c1C(=O)Nc1ccccn1)CCCC2 [MLS000765104-01] |  |  | viability at 66 h (in vitro; [2]): 101%
46 | Cc1nn(-c2ccc([N+](=O)[O-])cc2)c2c1C(c1cccc(Br)c1)N1C(=N2)C(=O)Nc2ccccc21 (centres unmarked) [MLS000331784-01] | 105 | 102 | 
47 | CCc1ccc2c(c1)C1(NN=C(c3ccc(C)cc3)S1)C(=O)N2 (centres unmarked) [MLS000528737-01] | 115 | 80 | 
48 | Cc1ccc(NN=C2C=CC(=O)c3ncccc32)cc1 [MLS000585898-01] | 93 | 88 | 
49 | COc1ccc(-c2c[n+](CC(=O)c3cccs3)c3n2CCC3)cc1 [MLS000333575-01] |  |  | viability (in vitro): 101%
50 | COC(=O)c1cc2sc(Cl)cc2n1CC(=O)Nc1ccc(OC)c(OC)c1OC [MLS000093488-01] | 101 |  | viability at 48 h (in vitro; [2]): 101%
51 | Cc1n[nH]c(=S)n(/N=C/c2cccs2)c1=O [MLS000780118-01] |  |  | viability at 66 h (in vitro; [2]): 98.7%
52 | COc1ccccc1-c1nnc2sc(COc3ccc(F)cc3)nn12 [MLS000042616-01] | 102 |  | viability at 48 h (in vitro; [2]): 102%
53 | OC(CNCCNc1ncccc1C(F)(F)F)Cn1ccc2ccccc21 (centres unmarked) [MLS000833573-01] | 106 | 96 | 
54 | Cc1ccc(-c2nc(CN3CCCCC3)cc(CN3CCCCC3)c2O)cc1 [MLS000713293-01] | 101 |  | viability at 48 h (in vitro; [2]): 101%
55 | Cc1cccc(Cl)c1/N=C(\S)N1CCN(c2ccc([N+](=O)[O-])cn2)CC1 [MLS000833563-01] | 95 | 93 | 
56 | O=C(C[n+]1cc(-c2ccccc2)n2c1CCC2)c1cccs1 [MLS001003812-01] | 94 | 86 | 
57 | CCOC(=O)N1CCc2c(sc3nc4n(c(=O)c23)N=C(c2ccc(OC)cc2)CS4)C1 [MLS000859689-01] | 99 | 96 | 
